Type in all cases: biochemical
For one experiment, the target named is T1, CDK6/CyclinD3 (Homo sapiens, UniProt Q00534).
T1 construct: purchased Carna 04-107
Kind of experiment: CDK6/CyclinD3 kinase inhibitory activity (Caliper mobility shift). The following applies: enzyme 15 nM, ATP 800 μM, 28° C. 30 min; read-out: CDK6/Cyclin D3 IC50. In a few lines:
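Compound preincubated 10 min at room temperature with CDK6/CyclinD3 (15 nM final) in HEPES pH 7.5/MgCl2/DTT buffer; reaction with 5-FAM peptide (3000 nM) and ATP 800 μM, 30 min at 28°C, stopped with EDTA. Substrate/product separated by microfluidic mobility shift; % conversion converted to % inhibition, IC50 from dose-response curves.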

Another experiment deals with T2, CDK7/CyclinH/MAT1 (Homo sapiens, UniProt P50613).
T2 construct: purchased Millipore 14-476M
T2 sequence (P50613 whole entry): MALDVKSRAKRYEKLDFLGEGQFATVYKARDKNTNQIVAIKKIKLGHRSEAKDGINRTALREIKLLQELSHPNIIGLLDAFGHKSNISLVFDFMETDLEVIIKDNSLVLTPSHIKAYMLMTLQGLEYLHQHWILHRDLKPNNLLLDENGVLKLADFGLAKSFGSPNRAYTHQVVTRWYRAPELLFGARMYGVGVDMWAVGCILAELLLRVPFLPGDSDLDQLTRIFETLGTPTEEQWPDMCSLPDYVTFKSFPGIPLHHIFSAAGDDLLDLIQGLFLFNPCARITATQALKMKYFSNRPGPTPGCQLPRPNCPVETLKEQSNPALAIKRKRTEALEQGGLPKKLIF
T2 sequence (P51946 whole entry partner): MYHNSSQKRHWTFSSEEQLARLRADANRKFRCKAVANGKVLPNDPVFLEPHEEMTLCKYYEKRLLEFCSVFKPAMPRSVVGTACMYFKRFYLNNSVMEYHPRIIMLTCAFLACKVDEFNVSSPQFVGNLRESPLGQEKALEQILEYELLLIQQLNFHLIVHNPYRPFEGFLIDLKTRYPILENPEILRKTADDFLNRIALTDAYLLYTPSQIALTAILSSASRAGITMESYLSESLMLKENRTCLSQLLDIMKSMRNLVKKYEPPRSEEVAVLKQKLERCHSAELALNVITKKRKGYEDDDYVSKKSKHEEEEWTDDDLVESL
T2 sequence (P51948 whole entry partner): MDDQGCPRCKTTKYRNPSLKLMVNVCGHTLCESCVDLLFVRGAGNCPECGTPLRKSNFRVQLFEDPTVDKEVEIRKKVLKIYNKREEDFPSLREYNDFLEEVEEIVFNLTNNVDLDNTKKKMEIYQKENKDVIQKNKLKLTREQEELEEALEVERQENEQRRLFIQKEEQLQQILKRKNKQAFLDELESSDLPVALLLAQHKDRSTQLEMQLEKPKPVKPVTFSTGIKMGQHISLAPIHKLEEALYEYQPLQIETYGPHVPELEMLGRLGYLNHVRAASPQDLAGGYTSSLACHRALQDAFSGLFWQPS
Kind of experiment: CDK7/CyclinH/MAT1 kinase inhibitory activity (Caliper mobility shift). To be noted: enzyme 12.5 nM, ATP 70 μM, 28° C. 30 min; read-out: CDK7/Cyclin H/MAT1 IC50. As for the experimental part:
(§1) CDK7/CyclinH/MAT1 kinase inhibitory activity (IC50): 5 μl of various dilutions of test compound in 1× kinase buffer (20 mM HEPES, pH 7.5, 10 mM MgCl2, 2 mM DTT and 0.01% Triton X-100) was mixed with 10 μL of CDK7/CyclinH/MAT1 (Millipore, 14-476M #, final concentration 12.5 nM in 1× Kinase buffer) in 384 plates and incubated at room temperature for 10 min. To initiate each reaction, 10 μL of peptide solution containing fluorescently-labeled-peptide CTD3 (5-FAM-[…], GL, SY346885 #, final concentration 3000 nM) and ATP (final concentration 70 μM) in 1× Kinase buffer was added to each of the wells containing test compound and CDK7/CyclinH/MAT1 mixture. The reaction is then allowed to proceed at 28° C. for 30 min and terminated by the addition of 25 μL stop buffer (100 mM HEPES pH 7.5, 50 mM EDTA, 0.2% Coating Reagent #3 (Perkin Elmer, 760050 #) and 0.015% Brij-35).
(§2) Following the kinase reaction, Caliper EZ reader II (Downstream voltages: −500V, Upstream voltages: −2250V, Base pressure −0.5 PSI, Screen pressure −1.2 PSI) was used to separate the phosphoiylated (product) and the unphosphorylated (substrate) fluorescently-labeled peptide CTD3 based on their different mobility. Both substrate and product were measured and the ratio of these values were used to generate % conversion by Caliper EZ reader II. These conversion values were then transformed into % inhibition of kinase activity using the formula: % Inhibition=[(MA−X)/(MA−MI)]×100% where MA=conversion value of DMSO only controls, MI=conversion value of no enzyme controls and X=conversion value at any given compound dose. IC50 values were then calculated by plotting dose-response curves and then using the XLfit application in Excel software.

Another experiment deals with T3, CDK9/CyclinT1 (Homo sapiens, UniProt P50750).
T3 construct: purchased Millipore 14-685M
T3 sequence (P50750 whole entry): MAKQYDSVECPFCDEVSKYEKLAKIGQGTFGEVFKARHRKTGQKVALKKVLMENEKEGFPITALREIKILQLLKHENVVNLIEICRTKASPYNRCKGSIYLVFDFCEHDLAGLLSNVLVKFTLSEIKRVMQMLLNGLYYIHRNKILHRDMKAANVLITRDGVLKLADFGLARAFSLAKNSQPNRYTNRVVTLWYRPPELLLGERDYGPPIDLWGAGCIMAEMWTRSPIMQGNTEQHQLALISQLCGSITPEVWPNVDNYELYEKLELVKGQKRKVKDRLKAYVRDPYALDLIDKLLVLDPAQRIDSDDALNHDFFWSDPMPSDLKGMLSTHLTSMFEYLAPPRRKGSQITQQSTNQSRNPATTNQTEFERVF
T3 sequence (O60563 whole entry partner): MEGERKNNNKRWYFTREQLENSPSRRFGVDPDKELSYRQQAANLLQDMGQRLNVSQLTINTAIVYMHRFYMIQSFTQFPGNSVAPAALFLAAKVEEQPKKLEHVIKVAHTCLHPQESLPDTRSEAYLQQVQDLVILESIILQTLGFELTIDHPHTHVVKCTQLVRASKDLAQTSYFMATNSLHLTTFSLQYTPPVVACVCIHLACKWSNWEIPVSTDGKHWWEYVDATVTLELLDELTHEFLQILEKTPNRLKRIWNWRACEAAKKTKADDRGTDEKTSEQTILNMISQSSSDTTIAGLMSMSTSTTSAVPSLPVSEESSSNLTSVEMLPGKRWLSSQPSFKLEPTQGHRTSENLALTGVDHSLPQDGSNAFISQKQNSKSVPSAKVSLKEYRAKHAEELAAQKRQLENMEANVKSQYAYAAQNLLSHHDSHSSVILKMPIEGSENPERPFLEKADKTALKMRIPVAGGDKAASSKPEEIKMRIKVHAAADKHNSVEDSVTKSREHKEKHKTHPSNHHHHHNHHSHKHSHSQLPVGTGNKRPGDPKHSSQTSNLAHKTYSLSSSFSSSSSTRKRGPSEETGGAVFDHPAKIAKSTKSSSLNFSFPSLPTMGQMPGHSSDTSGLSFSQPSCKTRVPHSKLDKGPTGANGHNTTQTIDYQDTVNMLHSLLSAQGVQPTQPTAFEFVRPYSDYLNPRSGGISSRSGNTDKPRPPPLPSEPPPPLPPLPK
Kind of experiment: CDK9/CyclinT1 kinase inhibitory activity (Caliper mobility shift). To be noted: enzyme 12.5 nM, ATP 10M, 28° C. 30 min; read-out: CDK9/Cyclin T1 IC50. As for the experimental part: as §1, with “CDK9/CyclinT1” for “CDK7/CyclinH/MAT1”, “14-685M” for “14-476M”, “fluorescently-labeled -peptide” for “fluorescently-labeled-peptide”, “[…])” for “70 μM)”
as §2, with “phosphorylated” for “phosphoiylated”

Structures are written as SMILES.

T1 sequence (Q00534 whole entry): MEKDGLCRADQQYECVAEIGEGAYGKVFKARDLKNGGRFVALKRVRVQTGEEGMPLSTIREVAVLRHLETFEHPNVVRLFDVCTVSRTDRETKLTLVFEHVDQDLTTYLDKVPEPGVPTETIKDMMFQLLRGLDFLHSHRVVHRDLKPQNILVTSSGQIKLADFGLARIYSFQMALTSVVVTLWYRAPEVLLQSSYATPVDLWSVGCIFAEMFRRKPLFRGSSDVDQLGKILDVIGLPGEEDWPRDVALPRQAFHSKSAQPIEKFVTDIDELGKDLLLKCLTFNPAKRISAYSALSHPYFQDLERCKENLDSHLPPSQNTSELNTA
T1 sequence (P30281 whole entry partner): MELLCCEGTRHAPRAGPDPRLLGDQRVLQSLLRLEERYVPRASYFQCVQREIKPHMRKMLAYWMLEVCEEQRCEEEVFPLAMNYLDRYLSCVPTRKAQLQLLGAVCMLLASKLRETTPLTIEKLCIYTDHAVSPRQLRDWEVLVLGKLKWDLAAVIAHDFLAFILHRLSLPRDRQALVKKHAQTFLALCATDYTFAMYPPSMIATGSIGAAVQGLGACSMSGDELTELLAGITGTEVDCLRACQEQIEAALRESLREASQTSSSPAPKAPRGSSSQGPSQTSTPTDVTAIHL

As for `CC1Cc2cnc3c(F)cc(-c4nc(N[C@@H]5CCOC[C@H]5O)ncc4Cl)cc3c2CN1` (single isomer, unassigned) [Example 34a], the IC50 on CDK6/CyclinD3 lay in the range of 10 to 100 nM; on CDK7/CyclinH/MAT1, 100 to 1000 nM; on CDK9/CyclinT1 it was 10 to 100 nM.

On to `Cc1c(C(C)O)cnc2c(F)cc(-c3nc(N[C@@H]4CCOC[C@H]4O)ncc3Cl)cc12` (single isomer, unassigned) [Example 88a], for which the IC50 at CDK6/CyclinD3 was 10 to 100 nM; at CDK7/CyclinH/MAT1 it was 100 to 1000 nM; at CDK9/CyclinT1, 100 to 1000 nM.

Turning to `Cc1nc2c(F)cc(-c3nc(N[C@@H]4CCOC[C@H]4O)ncc3Cl)cc2cc1C1CCCN1` (single isomer, unassigned) [Example 57a], the IC50 on CDK6/CyclinD3 was 100 to 1000 nM; at CDK7/CyclinH/MAT1, not below 1000 nM; on CDK9/CyclinT1 it was 100 to 1000 nM.

On to `Cc1nc2c(F)cc(-c3nc(N[C@@H]4CCOC[C@H]4O)ncc3Cl)cc2cc1C(C)(C)O` [Example 5, (3S,4R)-4-((5-chloro-4-(8-fluoro-3-(2-hydroxypropan-2-yl)-2-methylquinolin-6-yl)pyrimidin-2-yl)amino)tetrahydro-2H-pyran-3-ol], for which the results for the IC50 at CDK6/CyclinD3, on CDK7/CyclinH/MAT1 and on CDK9/CyclinT1 were 100 to 1000 nM, not below 1000 nM and 100 to 1000 nM, respectively.

Take `CC(C)n1c(C(C)(C)O)nc2c(F)cc(-c3cc(N[C@@H]4CCOC[C@H]4O)ncc3Cl)cc21` [Example 12, (3S,4R)-4-((5-chloro-4-(4-fluoro-2-(2-hydroxypropan-2-yl)-1-isopropyl-1H-benzo[d]imidazol-6-yl)pyridin-2-yl)amino)tetrahydro-2H-pyran-3-ol]: the IC50 at CDK6/CyclinD3 is 100 to 1000 nM; on CDK7/CyclinH/MAT1, not below 1000 nM; on CDK9/CyclinT1 it was 100 to 1000 nM.

Take `O[C@@H]1COCC[C@H]1Nc1ncc(Cl)c(-c2cc(F)c3ncc4c(c3c2)CCNC4)n1` [Example 8, (3S,4R)-4-((5-chloro-4-(7-fluoro-1,2,3,4-tetrahydrobenzo[c][2,7]naphthyridin-9-yl)pyrimidin-2-yl)amino)tetrahydro-2H-pyran-3-ol]: the IC50 on CDK6/CyclinD3, at CDK7/CyclinH/MAT1 and at CDK9/CyclinT1 was 10 to 100 nM in each case.

Take `CNC(C)c1cc2cc(-c3nc(N[C@@H]4CCOC[C@H]4O)ncc3Cl)cc(F)c2nc1C` (single isomer, unassigned) [Example 45a]: the IC50 was 100 to 1000 nM on CDK6/CyclinD3, not below 1000 nM on CDK7/CyclinH/MAT1 and 100 to 1000 nM at CDK9/CyclinT1.

For `CC1(C)Cc2cnc3c(F)cc(-c4nc(N[C@@H]5CCOC[C@H]5O)ncc4C#N)cc3c2CN1` [Example 49], the values for the IC50 at CDK6/CyclinD3, on CDK7/CyclinH/MAT1 and at CDK9/CyclinT1 were 100 to 1000 nM, not below 1000 nM and 100 to 1000 nM, respectively.

In the case of `CC1(C)Cc2cnc3c(F)cc(-c4nc(N[C@@H]5CCOC[C@H]5O)ncc4F)cc3c2CN1` [Example 24, (3S,4R)-4-((5-fluoro-4-(7-fluoro-3,3-dimethyl-1,2,3,4-tetrahydrobenzo[c][2,6]naphthyridin-9-yl)pyrimidin-2-yl)amino)tetrahydro-2H-pyran-3-ol], the IC50 lay in the range of 10 to 100 nM on CDK6/CyclinD3, 100 to 1000 nM on CDK7/CyclinH/MAT1 and 10 to 100 nM on CDK9/CyclinT1.

Take `Cc1c(C(C)NC2CC2)cnc2c(F)cc(-c3nc(N[C@@H]4CCOC[C@H]4O)ncc3Cl)cc12` (single isomer, unassigned) [Example 91b]: the IC50 at CDK6/CyclinD3 is 100 to 1000 nM; at CDK7/CyclinH/MAT1 it was not below 1000 nM; on CDK9/CyclinT1, not below 1000 nM.

On to `CC(C)(O)c1cnc2c(F)cc(-c3nc(Nc4ccc(-c5c[nH]cn5)cn4)ncc3F)cc2c1Cl` [Example 52], for which the IC50 at CDK6/CyclinD3 was 10 to 100 nM; on CDK7/CyclinH/MAT1 it was not below 1000 nM; at CDK9/CyclinT1, not below 1000 nM.

For the molecule `Cc1[nH]cnc1-c1cnc2c(F)cc(-c3nc(N[C@@H]4CCOC[C@H]4O)ncc3Cl)cc2c1` [Example 18, (3S,4R)-4-((5-chloro-4-(8-fluoro-3-(5-methyl-1H-imidazol-4-yl)quinolin-6-yl)pyrimidin-2-yl)amino)tetrahydro-2H-pyran-3-ol], the IC50 is 100 to 1000 nM on CDK6/CyclinD3, not below 1000 nM at CDK7/CyclinH/MAT1 and not below 1000 nM on CDK9/CyclinT1.

In the case of `[2H]c1nc2c(F)cc(-c3nc(N[C@@H]4CCOC[C@H]4O)ncc3Cl)cc2c2c1CC(C)(C)NC2` [Example 100], the IC50 on CDK6/CyclinD3 fell in the range of 10 to 100 nM; at CDK7/CyclinH/MAT1 it was 100 to 1000 nM; at CDK9/CyclinT1, 10 to 100 nM.

With `[2H]c1nc(N[C@@H]2CCOC[C@H]2O)nc(-c2cc(F)c3nc([2H])c4c(c3c2)CNC2(CC2)C4)c1Cl` [Example 68], the IC50 fell in the range of 10 to 100 nM on CDK6/CyclinD3, 100 to 1000 nM on CDK7/CyclinH/MAT1 and 100 to 1000 nM on CDK9/CyclinT1.

On to `CC(C)(O)c1cnc2c(F)cc(-c3nc(N[C@@H]4CCOC[C@H]4O)ncc3Cl)cc2c1` [Example 1, (3S,4R)-4-((5-chloro-4-(8-fluoro-3-(2-hydroxypropan-2-yl)quinolin-6-yl)pyrimidin-2-yl)amino)tetrahydro-2H-pyran-3-ol], for which the IC50 at CDK6/CyclinD3 is 100 to 1000 nM; at CDK7/CyclinH/MAT1, not below 1000 nM; on CDK9/CyclinT1, not below 1000 nM.

Regarding `O[C@@H]1COCC[C@H]1Nc1ncc(F)c(-c2cc(F)c3ncc4c(c3c2)CNC2(CC2)C4)n1` [Example 56], the results for the IC50 at CDK6/CyclinD3, at CDK7/CyclinH/MAT1 and on CDK9/CyclinT1 were 100 to 1000 nM, 10 to 100 nM and 10 to 100 nM, respectively.

As to `O[C@@H]1COCC[C@H]1Nc1ncc(Cl)c(-c2cc(F)c3ncc(C4(O)CC4)cc3c2)n1` [Example 29], the IC50 on CDK6/CyclinD3 is 100 to 1000 nM; at CDK7/CyclinH/MAT1, not below 1000 nM; on CDK9/CyclinT1, 100 to 1000 nM.

In the case of `O[C@@H]1COCC[C@H]1Nc1ncc(Cl)c(-c2cc(F)c3ncc4c(c3c2)CNC2(CC2)C4)n1` [Example 21, (3S,4R)-4-((5-chloro-4-(7-fluoro-1,4-dihydro-2H-spiro[benzo[c][2,6]naphthyridine-3,1′-cyclopropan]-9-yl)pyrimidin-2-yl)amino)tetrahydro-2H-pyran-3-ol], the IC50 on CDK6/CyclinD3 is 100 to 1000 nM; on CDK7/CyclinH/MAT1, not below 1000 nM; on CDK9/CyclinT1 it was 100 to 1000 nM.

Turning to `O[C@@H]1COCC[C@H]1Nc1cc(-c2cc(F)c3ncc4c(c3c2)CNCC4)c(Cl)cn1` [Example 25], the IC50 at CDK6/CyclinD3, at CDK7/CyclinH/MAT1 and on CDK9/CyclinT1 was 10 to 100 nM throughout.

For the molecule `Cc1nc2c(F)cc(-c3nc(N[C@@H]4CCOC[C@H]4O)ncc3Cl)cc2c(Cl)c1C(C)O` (single isomer, unassigned) [Example 35b], the IC50 at CDK6/CyclinD3 was 100 to 1000 nM; on CDK7/CyclinH/MAT1, not below 1000 nM; at CDK9/CyclinT1, not below 1000 nM.

Turning to `CC(C)(N)c1cnc2c(F)cc(-c3nc(N[C@@H]4CCOC[C@H]4O)ncc3Cl)cc2c1` [Example 14, (3S,4R)-4-((4-(3-(2-aminopropan-2-yl)-8-fluoroquinolin-6-yl)-5-chloropyrimidin-2-yl)amino)tetrahydro-2H-pyran-3-ol], the IC50 at CDK6/CyclinD3, on CDK7/CyclinH/MAT1 and on CDK9/CyclinT1 was 100 to 1000 nM throughout.

With `Cc1c(C(C)(C)O)cnc2c(C)cc(-c3nc(N[C@@H]4CCOC[C@H]4O)ncc3Cl)cc12` [Example 58], the IC50 was 100 to 1000 nM at CDK6/CyclinD3, not below 1000 nM on CDK7/CyclinH/MAT1 and not below 1000 nM on CDK9/CyclinT1.

For the molecule `[2H]c1nc2c(F)cc(-c3nc(N[C@@H]4CCOC[C@H]4O)ncc3C)cc2c2c1CC1(CC1)NC2` [Example 67], the IC50 on CDK6/CyclinD3 is not below 1000 nM; at CDK7/CyclinH/MAT1 it was not below 1000 nM; on CDK9/CyclinT1, 100 to 1000 nM.

These data come from patent US20260242395A1, “AMINOHETEROARYL KINASE INHIBITORS” (ALLORION THERAPEUTICS INC, priority 2022, published 2026).
